≈ marks a conversion by molar mass, not a printed value.
Legend:
Assay type in all cases: functional
Staphylococcus aureus [1] = assay: Antibacterial activity against methicillin-sensitive Staphylococcus aureus Smith by agar dilution method
Streptococcus pneumoniae [2] = assay: Antibacterial activity against penicillin-resistant Streptococcus pneumoniae PR44 by agar dilution method
Haemophilus influenzae = assay: Antibacterial activity against Haemophilus influenzae IID983 by agar dilution method
Enterococcus faecium = assay: Antibacterial activity against vancomycin-resistant Enterococcus faecium A2280 by agar dilution method
Streptococcus pneumoniae [3] = assay: Antibacterial activity against penicillin-susceptible Streptococcus pneumoniae IID553 by agar dilution method
Staphylococcus aureus [4] = assay: Antibacterial activity against methicillin-resistant Staphylococcus aureus TK7 by agar dilution method

Structure (SMILES)	MIC (Staphylococcus aureus [1]) [µg/mL]	MIC (Streptococcus pneumoniae [2]) [µg/mL]	MIC (Haemophilus influenzae) [µg/mL]	MIC (Enterococcus faecium) [µg/mL]	MIC (Streptococcus pneumoniae [3]) [µg/mL]	MIC (Staphylococcus aureus [4]) [µg/mL]
N#Cc1ccc(N2C[C@@H]3[C@H](C2)[C@@]3(C#N)c2ccc(-c3ccc(N4C[C@H](Cn5ccnn5)OC4=O)cc3F)cn2)nc1	0.06 (≈ 0.11 µM)	0.06 (≈ 0.11 µM)	> 2	0.125 (≈ 0.228 µM)	0.125 (≈ 0.228 µM)	0.06 (≈ 0.11 µM)
COC(=S)NC[C@H]1CN(c2ccc(-c3ccc([C@@]4(C#N)[C@@H]5CNC[C@@H]54)nc3)c(F)c2)C(=O)O1	0.03 (≈ 0.0642 µM)	0.03 (≈ 0.0642 µM)	0.5 (≈ 1.07 µM)	0.06 (≈ 0.128 µM)	0.03 (≈ 0.0642 µM)	0.03 (≈ 0.0642 µM)
N#C[C@]1(c2ccc(-c3ccc(N4C[C@H](CNc5ccon5)OC4=O)cc3F)cn2)[C@@H]2CNC[C@@H]21	0.125 (≈ 0.271 µM)	0.25 (≈ 0.543 µM)	> 16	0.5 (≈ 1.09 µM)	0.25 (≈ 0.543 µM)	0.125 (≈ 0.271 µM)
NC(=O)[C@]1(c2ccc(-c3ccc(N4C[C@H](Cn5ccnn5)OC4=O)cc3F)cn2)[C@@H]2CNC[C@@H]21	2 (≈ 4.32 µM)	0.5 (≈ 1.08 µM)		4 (≈ 8.63 µM)	1 (≈ 2.16 µM)	2 (≈ 4.32 µM)
N#C[C@]1(c2ccc(-c3ccc(N4C[C@H](Cn5ccnn5)OC4=O)cc3F)cn2)[C@@H]2CS(=O)(=O)C[C@@H]21	0.06 (≈ 0.121 µM)	0.06 (≈ 0.121 µM)	4 (≈ 8.09 µM)	0.06 (≈ 0.121 µM)	0.125 (≈ 0.253 µM)	0.125 (≈ 0.253 µM)
N#C[C@]1(c2ccc(-c3ccc(N4C[C@H](Cn5ccnn5)OC4=O)cc3)cn2)[C@@H]2CNC[C@@H]21	0.125 (≈ 0.292 µM)	0.125 (≈ 0.292 µM)	2 (≈ 4.68 µM)	0.25 (≈ 0.585 µM)	0.125 (≈ 0.292 µM)	0.125 (≈ 0.292 µM)
N#C[C@]1(c2ccc(-c3ccc(N4C[C@H](Cn5ccnn5)OC4=O)cc3F)cn2)[C@@H]2CNC[C@@H]21	0.06 (≈ 0.135 µM)	0.06 (≈ 0.135 µM)	2 (≈ 4.49 µM)	0.125 (≈ 0.281 µM)	0.06 (≈ 0.135 µM)	0.06 (≈ 0.135 µM)
N#C[C@]1(c2ccc(-c3c(F)cc(N4C[C@H](Cn5ccnn5)OC4=O)cc3F)cn2)[C@@H]2C[S+]([O-])C[C@@H]21 (stereo partly specified)	0.06 (≈ 0.121 µM)	0.125 (≈ 0.252 µM)	8 (≈ 16.1 µM)	0.125 (≈ 0.252 µM)	0.125 (≈ 0.252 µM)	0.06 (≈ 0.121 µM)
N#C[C@]1(c2ccc(-c3ccc(N4C[C@H](Cn5ccnn5)OC4=O)cc3F)cc2F)[C@@H]2CNC[C@@H]21	0.25 (≈ 0.541 µM)	0.25 (≈ 0.541 µM)	16 (≈ 34.6 µM)	0.25 (≈ 0.541 µM)	0.25 (≈ 0.541 µM)	0.125 (≈ 0.27 µM)
N#C[C@]1(c2c(F)cc(-c3ccc(N4C[C@H](Cn5ccnn5)OC4=O)cc3F)cc2F)[C@@H]2CNC[C@@H]21	0.5 (≈ 1.04 µM)	1 (≈ 2.08 µM)	> 128	0.25 (≈ 0.52 µM)	1 (≈ 2.08 µM)	0.5 (≈ 1.04 µM)
N#C[C@]1(c2ccc(-c3c(F)cc(N4C[C@H](Cn5ccnn5)OC4=O)cc3F)cn2)[C@@H]2CS(=O)(=O)C[C@@H]21	0.06 (≈ 0.117 µM)	0.06 (≈ 0.117 µM)	4 (≈ 7.8 µM)	0.125 (≈ 0.244 µM)	0.06 (≈ 0.117 µM)	0.06 (≈ 0.117 µM)
N#C[C@]1(c2ccc(-c3c(F)cc(N4C[C@H](Cn5ccnn5)OC4=O)cc3F)cn2)[C@@H]2CSC[C@@H]21	0.06 (≈ 0.125 µM)	0.25 (≈ 0.52 µM)	> 16	0.5 (≈ 1.04 µM)	0.25 (≈ 0.52 µM)	0.06 (≈ 0.125 µM)
N#C[C@]1(c2ccc(-c3ccc(N4C[C@H](Cn5ccnn5)OC4=O)cc3)cn2)[C@@H]2C[S+]([O-])C[C@@H]21 (stereo partly specified)	0.125 (≈ 0.271 µM)	0.125 (≈ 0.271 µM)	8 (≈ 17.4 µM)	0.25 (≈ 0.543 µM)	0.125 (≈ 0.271 µM)	0.125 (≈ 0.271 µM)
N#CN1C[C@@H]2[C@H](C1)[C@@]2(C#N)c1ccc(-c2ccc(N3C[C@H](Cn4ccnn4)OC3=O)cc2F)cn1	0.06 (≈ 0.128 µM)	0.06 (≈ 0.128 µM)	2 (≈ 4.25 µM)	0.06 (≈ 0.128 µM)	0.06 (≈ 0.128 µM)	0.06 (≈ 0.128 µM)
N#C[C@]1(c2ccc(-c3ccc(N4C[C@H](Cn5ccnn5)OC4=O)cc3F)cn2)[C@@H]2CSC[C@@H]21	0.06 (≈ 0.13 µM)	0.06 (≈ 0.13 µM)	> 2	0.25 (≈ 0.541 µM)	0.125 (≈ 0.27 µM)	0.06 (≈ 0.13 µM)
N#C[C@]1(c2ccc(-c3c(F)cc(N4C[C@H](Cn5ccnn5)OC4=O)cc3F)cn2)[C@@H]2COC[C@@H]21	0.06 (≈ 0.129 µM)	0.125 (≈ 0.269 µM)	4 (≈ 8.61 µM)	0.25 (≈ 0.538 µM)	0.25 (≈ 0.538 µM)	0.06 (≈ 0.129 µM)
N#C[C@]1(c2ccc(-c3ccc(N4C[C@H](Cn5ccnn5)OC4=O)cc3F)cn2)[C@@H]2CN(C(=O)CO)C[C@@H]21	0.06 (≈ 0.119 µM)	0.06 (≈ 0.119 µM)	4 (≈ 7.94 µM)	0.125 (≈ 0.248 µM)	0.06 (≈ 0.119 µM)	0.06 (≈ 0.119 µM)
N#C[C@]1(c2ccc(-c3ccc(N4C[C@H](COc5ccon5)OC4=O)cc3F)cn2)[C@@H]2CNC[C@@H]21	0.06 (≈ 0.13 µM)	0.06 (≈ 0.13 µM)	4 (≈ 8.67 µM)	0.125 (≈ 0.271 µM)	0.125 (≈ 0.271 µM)	0.06 (≈ 0.13 µM)
CC(=S)NC[C@H]1CN(c2ccc(-c3ccc([C@@]4(C#N)[C@@H]5CNC[C@@H]54)nc3)c(F)c2)C(=O)O1	0.06 (≈ 0.133 µM)	0.03 (≈ 0.0664 µM)	2 (≈ 4.43 µM)	0.06 (≈ 0.133 µM)	0.06 (≈ 0.133 µM)	0.03 (≈ 0.0664 µM)
COC(=O)NC[C@H]1CN(c2ccc(-c3ccc([C@@]4(C#N)[C@@H]5CNC[C@@H]54)nc3)c(F)c2)C(=O)O1	0.125 (≈ 0.277 µM)	0.125 (≈ 0.277 µM)	4 (≈ 8.86 µM)	0.125 (≈ 0.277 µM)	0.125 (≈ 0.277 µM)	0.125 (≈ 0.277 µM)
N#C[C@]1(c2ccc(-c3ccc(N4C[C@H](Cn5ccnn5)OC4=O)cc3)cn2)[C@@H]2COC[C@@H]21	0.06 (≈ 0.14 µM)	0.125 (≈ 0.292 µM)	4 (≈ 9.34 µM)	0.25 (≈ 0.583 µM)	0.125 (≈ 0.292 µM)	0.06 (≈ 0.14 µM)
CN1C[C@@H]2[C@H](C1)[C@@]2(C#N)c1ccc(-c2ccc(N3C[C@H](Cn4ccnn4)OC3=O)cc2F)cn1	0.06 (≈ 0.131 µM)	0.06 (≈ 0.131 µM)	4 (≈ 8.71 µM)	0.25 (≈ 0.544 µM)	0.06 (≈ 0.131 µM)	0.06 (≈ 0.131 µM)
N#C[C@]1(c2ccc(-c3ccc(N4C[C@H](Cn5ccnn5)OC4=O)cc3F)cn2)[C@@H]2C[S+]([O-])C[C@@H]21 (stereo partly specified)	0.06 (≈ 0.125 µM)	0.06 (≈ 0.125 µM)	4 (≈ 8.36 µM)	0.125 (≈ 0.261 µM)	0.06 (≈ 0.125 µM)	0.06 (≈ 0.125 µM)
N#C[C@]1(c2ccc(-c3ccc(N4C[C@H](Cn5ccnn5)OC4=O)cc3)cn2)[C@@H]2CSC[C@@H]21	0.06 (≈ 0.135 µM)	0.06 (≈ 0.135 µM)	8 (≈ 18 µM)	0.25 (≈ 0.562 µM)	0.125 (≈ 0.281 µM)	0.06 (≈ 0.135 µM)
N#C[C@]1(c2ccc(-c3c(F)cc(N4C[C@H](Cn5ccnn5)OC4=O)cc3F)cn2)[C@@H]2CNC[C@@H]21	0.125 (≈ 0.27 µM)	0.125 (≈ 0.27 µM)	4 (≈ 8.63 µM)	0.25 (≈ 0.539 µM)	0.125 (≈ 0.27 µM)	0.125 (≈ 0.27 µM)
N#C[C@]1(c2ccc(-c3ccc(N4C[C@H](Cn5ccnn5)OC4=O)cc3F)cc2)[C@@H]2CNC[C@@H]21	0.125 (≈ 0.281 µM)	0.06 (≈ 0.135 µM)	4 (≈ 9 µM)	0.25 (≈ 0.562 µM)	0.125 (≈ 0.281 µM)	0.06 (≈ 0.135 µM)
N#C[C@]1(c2ccc(-c3ccc(N4C[C@H](Cn5ccnn5)OC4=O)cc3F)cn2)[C@@H]2COC[C@@H]21	0.06 (≈ 0.134 µM)	0.06 (≈ 0.134 µM)	2 (≈ 4.48 µM)	0.25 (≈ 0.56 µM)	0.06 (≈ 0.134 µM)	0.06 (≈ 0.134 µM)
N#C[C@]1(c2ccc(-c3ccc(N4C[C@H](Cn5ccnn5)OC4=O)cc3)cn2)[C@@H]2CS(=O)(=O)C[C@@H]21	0.06 (≈ 0.126 µM)	0.06 (≈ 0.126 µM)	4 (≈ 8.39 µM)	0.125 (≈ 0.262 µM)	0.06 (≈ 0.126 µM)	0.06 (≈ 0.126 µM)
CC(=O)NC[C@H]1CN(c2ccc(N3CCOCC3)c(F)c2)C(=O)O1 [LINEZOLID]	1 (≈ 2.96 µM)		16 (≈ 47.4 µM)	2 (≈ 5.93 µM)		1 (≈ 2.96 µM)

Reference: ChEMBL document CHEMBL1140184, “Synthesis and structure-activity relationship studies of highly potent novel oxazolidinone antibacterials” (2008)
